Laboratory results from patent publication US20090047246A1, “NOVEL INHIBITORS OF HEPATITIS C VIRUS REPLICATION” (InterMune, Inc., priority 2007, published 2009).

These molecules were tested against T1, HCV NS3 helicase (Hepatitis C virus genotype 1b, UniProt P26663) (assay: HCV Helicase Prompt FRET Assay (Example A)). Settings: HCV NS3 helicase; tables do not say whether Example A or Example B assay; read-out: IC50 Activity.
T1 construct: full-length NS3 (1-631), purified at Array BioPharma
Assay type: biochemical
Description: Test compounds were diluted to 2.5 mM by adding 6 uL of a 10 mM solution of the compound to 18 uL of DMSO in a 384-well Costar polypropylene plate. Serial dilutions (2.5×) were performed in the plate using DMSO as the diluent. 1 ul of solution was transferred from each well to a new 384-well Costar polypropylene plate.
A 2× mixture was prepared containing 100 nM helicase substrate, 500 nM helicase capture strand (CS), and 600 μM ATP by diluting stock solutions with assay buffer consisting of 25 mM MOPS, pH 7.0, and 1.5 mM MgCl2, 0.005% (v/v) Triton X-100. Stock helicase substrate was prepared by annealing a FAM-labeled oligonucleotide to a BHQ-1 labeled oligonucleotide, which were both custom synthesized and HPLC-purified at Biosearch Technologies. The FAM-labeled and BHQ-labeled oligonucleotide had the following sequences:
The helicase capture strand was custom synthesized and purified at Integrated DNA Technologies. The helicase capture strand had the following sequence:
The ATP solution was prepared in MilliQ water, pH adjusted to approximately 7 with NaOH. ATP powder was obtained from Sigma (A-7699). The concentration was determined via A260 (ext. coeff=15,400 M^−1cm^−1).
11.5 μL of assay buffer was added to all wells of the plate containing luL of test compound. 5 μL of the Compound/assay buffer mixture was added to a black polystyrene 384-well Proxiplate. A 4× Enzyme solution was prepared by diluting enzyme stock containing full-length NS3 (1-631), purified at Array BioPharma, with assay buffer. 5 μL of the 4× Enzyme solution was added to the Proxiplate and incubated for 5 minutes (for control wells lacking enzyme, assay buffer was used instead). 10 μL of 2× substrate/CS/ATP mixture was then added to all wells of Proxiplate. The final assay conditions included 50 nM Substrate, 250 nM Capture Strand, 300 μM ATP, 5 or 6 nM Enzyme, and 2% (v/v) DMSO. The reaction proceeded for 70 cycles (˜30 min.) on an Envision at room temperature. The plate was read using the Envision (top mirror=FITC; Excitation filter=FITC 485; Emission filter=FITC 535). The fluorescence intensity was recorded for a total of 30 minutes. The initial rates of the reactions was calculated and used to calculate IC50 values. The IC50 curve fitting was performed using either a 4-parameter or 5-parameter logistic equation.

T1 sequence (P26663 1027-1657): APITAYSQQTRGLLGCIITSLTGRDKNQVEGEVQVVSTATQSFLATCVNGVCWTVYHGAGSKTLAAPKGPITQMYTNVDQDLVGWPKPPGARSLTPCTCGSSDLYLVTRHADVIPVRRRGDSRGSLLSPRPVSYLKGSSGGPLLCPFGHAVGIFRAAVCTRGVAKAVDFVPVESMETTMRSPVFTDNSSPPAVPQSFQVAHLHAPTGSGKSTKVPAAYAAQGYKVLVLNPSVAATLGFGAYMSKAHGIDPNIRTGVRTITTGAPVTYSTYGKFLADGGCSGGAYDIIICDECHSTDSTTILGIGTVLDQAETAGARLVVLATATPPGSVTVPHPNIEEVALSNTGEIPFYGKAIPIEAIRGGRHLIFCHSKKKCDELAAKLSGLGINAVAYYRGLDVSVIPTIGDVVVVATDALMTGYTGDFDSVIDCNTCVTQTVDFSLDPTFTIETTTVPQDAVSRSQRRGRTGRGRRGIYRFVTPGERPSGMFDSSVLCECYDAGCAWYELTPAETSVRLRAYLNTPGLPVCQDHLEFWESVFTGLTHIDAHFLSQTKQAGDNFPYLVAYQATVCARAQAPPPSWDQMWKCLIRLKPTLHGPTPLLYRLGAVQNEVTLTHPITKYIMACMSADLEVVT

Structure (SMILES)	IC50
CCC(C)N(Cc1ccccc1)c1ccc(-n2cc(CC(=O)O)c3ccccc32)cc1 (stereo not shown) [Example 171]	< 10 µM
CC(CO)N(Cc1ccccc1)c1ccc(-n2cc(CC(=O)O)c3ccccc32)cc1 (stereo not shown) [Example 172]	< 10 µM
Cc1cc(NCc2ccccc2)ccc1-n1cc(CC(=O)O)c2ccccc21 [Example 173]	10 to 50 µM
CCN(Cc1ccccc1)c1ccc(-n2cc(CC(=O)O)c3ccccc32)c(C)c1 [Example 174]	< 10 µM
CCN(Cc1ccccc1)c1ccc(-n2nc(CC(=O)O)c3ccccc32)c(C)c1 [Example 175]	10 to 50 µM
Cc1cccc(CN(C)c2ccc(-n3cc(CC(=O)O)c4ccccc43)cc2)c1 [Example 176]	< 10 µM
COc1cccc(CN(C)c2ccc(-n3cc(CC(=O)O)c4ccccc43)cc2)c1 [Example 177]	< 10 µM
CN(Cc1cccc(F)c1)c1ccc(-n2cc(CC(=O)O)c3ccccc32)cc1 [Example 178]	< 10 µM
CN(Cc1cccc(Cl)c1)c1ccc(-n2cc(CC(=O)O)c3ccccc32)cc1 [Example 179]	< 10 µM
CN(Cc1cccnc1)c1ccc(-n2cc(CC(=O)O)c3ccccc32)cc1 [Example 180]	10 to 50 µM
Cc1ccccc1CN(C)c1ccc(-n2cc(CC(=O)O)c3ccccc32)cc1 [Example 181]	< 10 µM
CN(Cc1ccccc1F)c1ccc(-n2cc(CC(=O)O)c3ccccc32)cc1 [Example 182]	< 10 µM
CCCNC(=O)Cc1cn(Cc2cccc(OCc3ccccc3)c2)c2ccc(Br)cc12 [Example 183]	10 to 50 µM
O=C(Cc1cn(Cc2cccc(CCc3ccccc3)c2)c2ccc(Br)cc12)N1CCCC1 [Example 184]	10 to 50 µM
O=C(Cc1cn(Cc2cccc(OCc3ccccc3)c2)c2ccc(Br)cc12)NCC1CC1 [Example 185]	10 to 50 µM
CCNC(=O)Cc1cn(Cc2cccc(OCc3ccccc3)c2)c2ccc(OCc3ccccc3)cc12 [Example 186]	10 to 50 µM
CC(C)CNC(=O)Cc1cn(Cc2cccc(OCc3ccccc3)c2)c2ccc(OCc3ccccc3)cc12 [Example 187]	10 to 50 µM
O=C(Cc1cn(Cc2cccc(OCc3ccccc3)c2)c2ccc(OCc3ccccc3)cc12)N1CCCCC1 [Example 188]	10 to 50 µM
O=C(Cc1cn(Cc2cccc(OCc3ccccc3)c2)c2ccc(OCc3ccccc3)cc12)N1CCCC1 [Example 189]	10 to 50 µM
O=C(Cc1cn(Cc2cccc(OCc3ccccc3)c2)c2ccc(OCc3ccccc3)cc12)NCC1CC1 [Example 190]	10 to 50 µM
CC1CCN(C(=O)Cc2cn(Cc3cccc(OCc4ccccc4)c3)c3ccc(OCc4ccccc4)cc23)C1 (stereo not shown) [Example 191]	10 to 50 µM
CS(=O)(=O)NC(=O)Cc1cn(Cc2cccc(OCc3ccccc3)c2)c2ccc(OCc3ccccc3)cc12 [Example 192]	< 10 µM
CCS(=O)(=O)NC(=O)Cc1cn(Cc2cccc(OCc3ccccc3)c2)c2ccc(OCc3ccccc3)cc12 [Example 193]	< 10 µM

Structure (SMILES)	IC50
O=C(Cc1cn(Cc2cccc(OCc3ccccc3)c2)c2ccc(OCc3ccccc3)cc12)NS(=O)(=O)C1CC1 [Example 194]	< 10 µM
O=C(Cc1cn(Cc2cccc(OCc3ccccc3)c2)c2ccc(OCc3ccccc3)cc12)NS(=O)(=O)c1ccccc1 [Example 195]	< 10 µM
O=C(NS(=O)(=O)C1CC1)c1cn(Cc2csc3ccc(Cl)cc23)c2ccccc12 [Example 196]	10 to 50 µM
CCS(=O)(=O)NC(=O)Cc1cn(Cc2csc3ccc(Cl)cc23)c2ccccc12 [Example 197]	10 to 50 µM
O=C(Cc1cn(Cc2csc3ccc(Cl)cc23)c2ccccc12)NS(=O)(=O)C1CC1 [Example 198]	10 to 50 µM
O=C(Cc1cn(Cc2csc3ccc(Cl)cc23)c2ccccc12)NS(=O)(=O)c1ccccc1 [Example 199]	10 to 50 µM
NC(=O)Cc1c(-c2ccccc2)n(Cc2csc3ccc(Cl)cc23)c2ccccc12 [Example 200]	10 to 50 µM
CSc1ccc2c(c1)c(CC(N)=O)cn2Cc1cccc(OCc2ccccc2)c1 [Example 201]	< 10 µM
Clc1ccc2scc(Cn3cc(Cc4nnn[nH]4)c4ccccc43)c2c1 [Example 202]	< 10 µM
c1ccc(-c2ccccc2Cn2cc(Cc3nnn[nH]3)c3ccccc32)cc1 [Example 203]	< 10 µM
Clc1ccc2scc(Cn3c(-c4ccccc4)c(Cc4nnn[nH]4)c4ccccc43)c2c1 [Example 204]	< 10 µM
O=C(Cn1cc(Cc2nnn[nH]2)c2ccccc21)N1CCN(Cc2ccccc2)CC1 [Example 205]	10 to 50 µM
O=C(Cn1cc(Cc2nnn[nH]2)c2ccccc21)N1CCC(Cc2ccccc2)CC1 [Example 206]	10 to 50 µM
O=C(NCc1ccc2c(c1)c(Cc1nn[nH]n1)cn2Cc1csc2ccc(Cl)cc12)OCc1ccccc1 [Example 207]	< 10 µM
CC(C)(C)OC(=O)NCc1ccc2c(c1)c(Cc1nn[nH]n1)cn2Cc1csc2ccc(Cl)cc12 [Example 208]	< 10 µM
N#CCc1cn(Cc2csc3ccc(Cl)cc23)c2ccc(CNS(=O)(=O)c3ccccc3)cc12 [Example 209]	10 to 50 µM
O=S(=O)(NCc1ccc2c(c1)c(Cc1nn[nH]n1)cn2Cc1csc2ccc(Cl)cc12)c1ccccc1 [Example 210]	< 10 µM
N#CCc1cn(Cc2csc3ccc(Cl)cc23)c2ccc(CNC(=O)c3ccccc3)cc12 [Example 211]	10 to 50 µM
Oc1nnc(Cc2cn(Cc3csc4ccc(Cl)cc34)c3ccccc23)[nH]1 [Example 212]	10 to 50 µM
Oc1cc(Cc2cn(Cc3csc4ccc(Cl)cc34)c3ccccc23)n[nH]1 [Example 213]	10 to 50 µM
O=C(Cn1cc(Cc2nnn[nH]2)c2ccccc21)c1ccccc1 [Example 214]	10 to 50 µM
CC(c1nnn[nH]1)c1cn(Cc2csc3ccc(Cl)cc23)c2ccccc12 (stereo not shown) [Example 215]	10 to 50 µM
CC(C)(c1nnn[nH]1)c1cn(Cc2csc3ccc(Cl)cc23)c2ccccc12 [Example 216]	10 to 50 µM

Structure (SMILES)	IC50
O=C(O)Cc1c(C(=O)c2ccccc2)n(Cc2csc3ccc(Cl)cc23)c2ccccc12 [Example 217]	< 10 µM
O=C(O)Cc1c(C(=O)c2ccc(-c3ccccc3)cc2)n(CC2CC2)c2ccccc12 [Example 218]	< 10 µM
O=C(O)Cc1c(C(=O)c2ccc(-c3ccccc3)cc2)n(Cc2ccccc2)c2ccccc12 [Example 219]	< 10 µM
O=C(O)Cc1c(C(=O)c2ccc(-c3ccccc3)cc2)n(Cc2csc3ccc(Cl)cc23)c2ccccc12 [Example 220]	< 10 µM
O=C(O)Cc1c(C(=O)c2cccc(Oc3ccccc3)c2)n(CC2CC2)c2ccccc12 [Example 221]	< 10 µM
O=C(O)Cc1c(C(=O)c2cccc(Oc3ccccc3)c2)n(Cc2ccccc2)c2ccccc12 [Example 222]	< 10 µM
O=C(O)Cc1c(C(=O)c2ccc(-c3ccccc3)cc2)oc2ccccc12 [Example 223]	10 to 50 µM
O=C(O)Cc1c(C(=O)c2ccc(-c3ccccc3)cc2)sc2ccccc12 [Example 224]	< 10 µM
O=C(O)Cc1c(C(=O)c2cccc(-c3cccc(C(F)(F)F)c3)c2)[nH]c2ccccc12 [Example 225]	10 to 50 µM
CCOc1cccc(-c2cccc(C(=O)c3[nH]c4ccccc4c3CC(=O)O)c2)c1 [Example 226]	10 to 50 µM
CC(C)c1cccc(-c2cccc(C(=O)c3[nH]c4ccccc4c3CC(=O)O)c2)c1 [Example 227]	< 10 µM
CSc1cccc(-c2cccc(C(=O)c3[nH]c4ccccc4c3CC(=O)O)c2)c1 [Example 228]	10 to 50 µM
COc1cccc(-c2cccc(C(=O)c3[nH]c4ccccc4c3CC(=O)O)c2)c1 [Example 229]	10 to 50 µM
O=C(O)Cc1c(C(=O)c2cccc(-c3cccc(Cl)c3Cl)c2)[nH]c2ccccc12 [Example 230]	< 10 µM
O=C(O)Cc1c(C(=O)c2cccc(-c3cc(Cl)cc(Cl)c3)c2)[nH]c2ccccc12 [Example 231]	< 10 µM
O=C(O)Cc1c(C(=O)c2cccc(-c3cccc(Cl)c3)c2)[nH]c2ccccc12 [Example 232]	10 to 50 µM
Cc1cc(C)cc(-c2cccc(C(=O)c3[nH]c4ccccc4c3CC(=O)O)c2)c1 [Example 233]	< 10 µM
O=C(O)Cc1c(C(=O)c2cccc(-c3ccccc3Cl)c2)[nH]c2ccccc12 [Example 234]	10 to 50 µM
O=C(O)Cc1c(C(=O)c2cccc(-c3ccc(CO)cc3)c2)[nH]c2ccccc12 [Example 235]	10 to 50 µM
COc1ccc(-c2cccc(C(=O)c3[nH]c4ccccc4c3CC(=O)O)c2)cc1 [Example 236]	10 to 50 µM
O=C(O)Cc1c(C(=O)c2cccc(-c3cccc(OC(F)(F)F)c3)c2)[nH]c2ccccc12 [Example 237]	10 to 50 µM
